{"source": "patent US9278962B2", "about": "(Cytokinetics, Inc., priority 2011, dated 2016)", "data": [{"system": "rabbit skeletal myofibrils (approximately 90% fast fibers)", "assay": "Activation of fast skeletal myofibrils (PUMA coupled-enzyme ATPase assay, AC1.4)", "type": "biochemical", "conditions": "Table 2; concentration at which the compound increased enzymatic activity by 40%; calcium at pCa25", "procedure": "(§1) Rabbit skeletal myofibrils were prepared based upon the method of Herrmann et al. (Biochem. 32(28):7255-7263(1993). Myofibrils were prepared from rabbit psoas muscle purchased from Pel-Freez Biologicals (Arkansas) within 2 days of ordering, stored on ice. Minced muscle was homogenized in 10 volumes of ice-cold “standard” buffer (50 mM Tris, pH 7.4, 0.1 M potassium acetate, 5 mM KCl, 2 mM DTT, 0.2 mM PMSF, 10 μM leupeptin, 5 μM pepstatin, and 0.5 mM sodium azide) containing 5 mM EDTA and 0.5% Triton X-100 using an Omni-Macro homogenizer. Myofibrils were recovered by low speed centrifugation (3000 rpm for 10 minutes) and washed 2 times in the Triton X-100 containing buffer to ensure removal of cellular membrane. Following the Triton washes, myofibrils were washed 3 times in “standard” buffer containing 2 mM magnesium acetate. A final wash in assay buffer (12 mM PIPES, pH 6.8, 60 mM KCl, 1 mM DTT) was performed and brought to 10% sucrose for flash freezing in liquid nitrogen and storage at −80° C.\n(§2) Fast fiber activators were identified by measuring the enzymatic activity of muscle myofibril preparations using the proprietary PUMA™ (see, e.g., U.S. Pat. Nos. 6,410,254, 6,743,599, 7,202,051, and 7,378,254) assay system. Myofibril preparations consisted of rabbit skeletal muscle (approximately 90% fast fibers) that had been mechanically homogenized and washed with a detergent (triton X-100) to remove cellular membranes. This preparation retained all of the sarcomeric components in a native conformation and the enzymatic activity was still regulated by calcium. Compounds were tested using a myofibril suspension and a level of calcium sufficient to increase enzymatic activity of the myofibrils to 25% of their maximal rate (termed pCa25). Enzymatic activity was tracked via a pyruvate kinase and lactate dehydrogenase-coupled enzyme system. This assay regenerates myosin-produced ADP into ATP by oxidizing NADH, producing an absorbance change at 340 nm. The buffering system was 12 mM Pipes, 2 mM MgCl2, 1 mM DTT at pH 6.8 (PM12 buffer).\n(§3) Using procedures similar to those described herein, utilizing reagents and intermediates commercially available (e.g., Sigma-Aldrich) or readily synthesized by one of skill in the art, the compounds in Table 2, Table 3, Table 4 and Table 5 were synthesized, characterized and tested. AC1.4 values were determined according to the procedure described in Example 6, and the reported median AC1.4 values are as follows: A=<1 uM; B=1-10 uM; C=10-20 uM; D=>20 uM.", "values": [{"smiles": "CN(CCO)c1nsc(NCC(C)(C)c2ccc(F)cc2)n1", "Mean AC1.4": "D (D=>20 uM)"}, {"smiles": "CC(C)(CNc1nc(C(O)CO)ns1)c1ccc(F)cc1", "note": "(stereo not shown) [1-(5-{[2-(4-fluorophenyl)-2-methylpropyl]amino}-1,2,4-thiadiazol-3-yl)ethane-1,2-diol]", "Mean AC1.4": "B (B=1-10 uM)"}, {"smiles": "CC(C)(CNc1nc(CCC(=O)N2CC[C@@H](O)C2)ns1)c1ccc(F)cc1", "note": "[1-((3R)-3-hydroxypyrrolidinyl)-3-(5-{[2-(4-fluorophenyl)-2-methylpropyl]amino}(1,2,4-thiadiazol-3-yl))propan-1-one]", "Mean AC1.4": "D (D=>20 uM)"}, {"smiles": "CC(C)(CNc1nc(CCC(=O)N2CC[C@H](O)C2)ns1)c1ccc(F)cc1", "note": "[1-((3S)-3-hydroxypyrrolidinyl)-3-(5-{[2-(4-fluorophenyl)-2-methylpropyl]amino}(1,2,4-thiadiazol-3-yl))propan-1-one]", "Mean AC1.4": "D (D=>20 uM)"}, {"smiles": "CC(C)(CNc1nc(CCN2CCCC(O)C2)ns1)c1ccc(F)cc1", "note": "(stereo not shown) [1-[2-(5-{[2-(4-fluorophenyl)-2-methylpropyl]amino}-1,2,4-thiadiazol-3-yl)ethyl]piperidin-3-ol]", "Mean AC1.4": "C (C=10-20 uM)"}, {"smiles": "CC(C)(CNc1nc(CCN2CCC(O)CC2)ns1)c1ccc(F)cc1", "note": "[1-[2-(5-{[2-(4-fluorophenyl)-2-methylpropyl]amino}-1,2,4-thiadiazol-3-yl)ethyl]piperidin-4-ol]", "Mean AC1.4": "D (D=>20 uM)"}, {"smiles": "CC(C)(CNc1nc(CN2CCN(S(C)(=O)=O)CC2)ns1)c1ccc(F)cc1", "note": "[1-[(5-{[2-(4-fluorophenyl)-2-methylpropyl]amino}(1,2,4-thiadiazol-3-yl))methyl]-4-(methylsulfonyl)piperazine]", "Mean AC1.4": "C (C=10-20 uM)"}, {"smiles": "CC(C)(CNc1nc(CN2CCCC(O)C2)ns1)c1ccc(F)cc1", "note": "(stereo not shown) [1-[(5-{[2-(4-fluorophenyl)-2-methylpropyl]amino}-1,2,4-thiadiazol-3-yl)methyl]piperidin-3-ol]", "Mean AC1.4": "D (D=>20 uM)"}, {"smiles": "CC(C)(CNc1nc(CN2CCC(O)CC2)ns1)c1ccc(F)cc1", "note": "[1-[(5-{[2-(4-fluorophenyl)-2-methylpropyl]amino}-1,2,4-thiadiazol-3-yl)methyl]piperidin-4-ol]", "Mean AC1.4": "D (D=>20 uM)"}, {"smiles": "CC(C)(CNc1nc(CN2CCN(C(=O)CO)CC2)ns1)c1ccc(F)cc1", "note": "[1-{4-[(5-{[2-(4-fluorophenyl)-2-methylpropyl]amino}(1,2,4-thiadiazol-3-yl))methyl]piperazinyl}-2-hydroxyethan-1-one]", "Mean AC1.4": "D (D=>20 uM)"}, {"smiles": "Cc1nsc(NC(=O)C(C)(C)c2ccc(F)cc2)n1", "note": "[2-(4-fluorophenyl)-2-methyl-N-(3-methyl(1,2,4-thiadiazol-5-yl))propanamide]", "Mean AC1.4": "D (D=>20 uM)"}, {"smiles": "CC(C)(C(=O)Nc1nc(-c2ccccc2)ns1)c1ccc(F)cc1", "note": "[2-(4-fluorophenyl)-2-methyl-N-(3-phenyl(1,2,4-thiadiazol-5-yl))propanamide]", "Mean AC1.4": "D (D=>20 uM)"}]}, {"system": "rabbit skeletal myofibrils (approximately 90% fast fibers)", "assay": "Activation of fast skeletal myofibrils (PUMA coupled-enzyme ATPase assay, AC1.4)", "type": "biochemical", "conditions": "Table 3; concentration at which the compound increased enzymatic activity by 40%; calcium at pCa25", "procedure": "as §1, §2, §3", "values": [{"smiles": "CC(C)(O)c1ccc(F)c(-c2nnc(NC[C@]3(c4ncccc4F)C[C@H](F)C3)s2)c1", "note": "[2-(4-fluoro-3-(5-((3-fluoro-1-(3-fluoropyridin-2-yl)cyclobutyl)methylamino)-1,3,4-thiadiazol-2-yl)phenyl)propan-2-ol]", "Mean AC1.4": "B (B=1-10 uM)"}, {"smiles": "NC(=O)c1ccccc1-c1nnc(NCC2(c3ncccc3F)CCC2)s1", "note": "[2-(5-((1-(3-fluoropyridin-2-yl)cyclobutyl)methylamino)-1,3,4-thiadiazol-2-yl)benzamide]", "Mean AC1.4": "D (D=>20 uM)"}]}, {"system": "rabbit skeletal myofibrils (approximately 90% fast fibers)", "assay": "Activation of fast skeletal myofibrils (PUMA coupled-enzyme ATPase assay, AC1.4)", "type": "biochemical", "conditions": "Table 4; concentration at which the compound increased enzymatic activity by 40%; calcium at pCa25", "procedure": "as §1, §2, §3", "values": [{"smiles": "NC(=O)c1cccc2sc(NC[C@]3(c4ncccc4F)C[C@H](F)C3)nc12", "Mean AC1.4": "D (D=>20 uM)"}, {"smiles": "CC(C)(O)c1ccc2nc(NCC(C)(C)c3ccc(F)cc3)sc2c1", "note": "[2-(2-(2-(4-fluorophenyl)-2-methylpropylamino)benzo[d]thiazol-6-yl)propan-2-ol]", "Mean AC1.4": "A (A=<1 uM)"}, {"smiles": "CN(C)C(=O)c1ccc2nc(NCC(C)(C)c3ccc(F)cc3)sc2c1", "note": "[2-(2-(4-fluorophenyl)-2-methylpropylamino)-N,N-dimethylbenzo[d]thiazole-6-carboxamide]", "Mean AC1.4": "B (B=1-10 uM)"}, {"smiles": "CNC(=O)c1ccc2nc(NCC(C)(C)c3ccc(F)cc3)sc2c1", "note": "[2-(2-(4-fluorophenyl)-2-methylpropylamino)-N-methylbenzo[d]thiazole-6-carboxamide]", "Mean AC1.4": "B (B=1-10 uM)"}, {"smiles": "CC(C)(CNc1nc2ccc(C(=O)O)cc2s1)c1ccc(F)cc1", "note": "[2-(2-(4-fluorophenyl)-2-methylpropylamino)benzo-6-carboxylic acid]", "Mean AC1.4": "C (C=10-20 uM)"}, {"smiles": "CC(C)(CNc1nc2c(C#N)cccc2s1)c1ccc(F)cc1", "note": "[2-(2-(4-fluorophenyl)-2-methylpropylamino)benzo[d] thiazole-4-carbonitrile]", "Mean AC1.4": "A (A=<1 uM)"}, {"smiles": "CC(C)(CNc1nc2c(C(N)=O)cccc2s1)c1ccc(F)cc1", "note": "[2-(2-(4-fluorophenyl)-2-methylpropylamino)benzo[d] thiazole-4-carboxamide]", "Mean AC1.4": "C (C=10-20 uM)"}, {"smiles": "CC(C)(CNc1nc2cc(C#N)ccc2s1)c1ccc(F)cc1", "note": "[2-(2-(4-fluorophenyl)-2-methylpropylamino)benzo[d] thiazole-5-carbonitrile]", "Mean AC1.4": "B (B=1-10 uM)"}, {"smiles": "CC(C)(CNc1nc2cc(C(N)=O)ccc2s1)c1ccc(F)cc1", "note": "[2-(2-(4-fluorophenyl)-2-methylpropylamino)benzo[d] thiazole-5-carboxamide]", "Mean AC1.4": "B (B=1-10 uM)"}, {"smiles": "CC(C)(CNc1nc2ccc(C#N)cc2s1)c1ccc(F)cc1", "note": "[2-(2-(4-fluorophenyl)-2-methylpropylamino)benzo[d] thiazole-6-carbonitrile]", "Mean AC1.4": "B (B=1-10 uM)"}, {"smiles": "CC(C)(CNc1nc2ccc(C(N)=O)cc2s1)c1ccc(F)cc1", "note": "[2-(2-(4-fluorophenyl)-2-methylpropylamino)benzo[d] thiazole-6-carboxamide]", "Mean AC1.4": "A (A=<1 uM)"}, {"smiles": "CC(C)(CNc1nc2cccc(C#N)c2s1)c1ccc(F)cc1", "note": "[2-(2-(4-fluorophenyl)-2-methylpropylamino)benzo[d] thiazole-7-carbonitrile]", "Mean AC1.4": "B (B=1-10 uM)"}, {"smiles": "CC(C)(CNc1nc2cccc(C(N)=O)c2s1)c1ccc(F)cc1", "note": "[2-(2-(4-fluorophenyl)-2-methylpropylamino)benzo[d] thiazole-7-carboxamide]", "Mean AC1.4": "B (B=1-10 uM)"}, {"smiles": "N#Cc1ccc2nc(NCCc3ccc(F)cc3)sc2c1", "note": "[2-(4-fluorophenethylamino)benzo[d] thiazole-6-carbonitrile]", "Mean AC1.4": "D (D=>20 uM)"}, {"smiles": "NC(=O)c1ccc2nc(NCCc3ccc(F)cc3)sc2c1", "note": "[2-(4-fluorophenethylamino)benzo[d] thiazole-6-carboxamide]", "Mean AC1.4": "B (B=1-10 uM)"}]}, {"system": "rabbit skeletal myofibrils (approximately 90% fast fibers)", "assay": "Activation of fast skeletal myofibrils (PUMA coupled-enzyme ATPase assay, AC1.4)", "type": "biochemical", "conditions": "Table 5; concentration at which the compound increased enzymatic activity by 40%; calcium at pCa25", "procedure": "as §1, §2, §3", "values": [{"smiles": "O=C(Nc1ccn(-c2ccccc2)n1)C1(c2ncccc2F)CCC1", "note": "[1-(3-fluoropyridin-2-yl)-N-(1-phenyl-1H-pyrazol-3-yl)cyclobutanecarboxamide]", "Mean AC1.4": "D (D=>20 uM)"}, {"smiles": "Cc1cc(NC(=O)C2(c3ncccc3F)CCC2)nn1-c1ccccc1", "note": "[1-(3-fluoropyridin-2-yl)-N-(5-methyl-1-phenyl-1H-pyrazol-3-yl)cyclobutanecarboxamide]", "Mean AC1.4": "D (D=>20 uM)"}]}]}
